Results as given in patent publication US20260148853A1, “UQCC2-BASED COMPUTER-ASSISTED METHOD, SYSTEM, AND DEVICE FOR DIAGNOSING OSIMERTINIB-RESISTANT LUNG CANCER, PREDICTING DRUG THERAPEUTIC EFFECTS, AND SCREENING DRUGS TARGETED FOR OSIMERTINIB-RESISTANT LUNG CANCER” (THE SECOND HOSPITAL OF DALIAN MEDICAL UNIVERSITY, priority 2024, published 2026).
d = 2'-deoxy (DNA)

Tests used:
Format in all cases: cell-based
UQCC2 [1] = assay: western blot of UQCC2 protein expression in NCI-H1975/OR cells treated with Ctrl, Osim or Lomi; conditions: NCI-H1975/OR cells (osimertinib-resistant), lomitapide alone vs Osim and Ctrl, FIG. 9
Method: In a specific embodiment, the protein expression levels of UQCC2 in the NCI-H1975 cells and the NCI-H1975/OR cells (Ctrl) were determined by western blot assay, or the like. The NCI-H1975/OR cells (Ctrl) were osimertinib-resistant cells. The western blot assay used anti-UQCC2 (antibody dilution ratio of 1:1000, Proteintech, #25781-1-AP). Anti-GAPDH (antibody dilution ratio of 1:50,000, Proteintech, #60004-1-Ig) was used as a loading control. Significance (denoted as P) was determined using GraphPad Prism software, etc. All statistical analyses were performed using data from at least three independent experiments. […] “*” refers to a marker sign of significance.
In a specific embodiment, the protein expression of UQCC2 in the NCI-H1975/OR cells (treated with Ctrl, Osim, or Lomi alone) was determined by western blot assay. The western blot assay was performed using the following antibody: anti-UQCC2 (antibody dilution ratio of 1:1000, Proteintech, #25781-1-AP). Anti-GAPDH (antibody dilution ratio of 1:50,000, Proteintech, #60004-1-Ig) was used as a loading control. Significance was calculated using GraphPad Prism software, etc.

METTL3 = assay: western blot of METTL3 after siRNA knockdown of UQCC2 in H1975/OR cells; conditions: FIG. 11C
Excerpt: (§1) In one embodiment, the correlation between METTL3 and UQCC2 expression was investigated by western blot assay after knockdown of the gene expression of METTL3 or UQCC2 in H1975/OR cells through small interfering RNA (siRNA), etc. The knockdown may be a partial reduction in the expression level of a specific gene.
(§2) siMETTL3 (5′-3′) (siRNA for METTL3 gene knockdown): sense strand GCACUUGGAUCUACGGAAU(dT)(dT); antisense strand AUUCCGUAGAUCC AAGUGC(dT)(dT); siUQCC2 (5′-3′) (siRNA for UQCC2 gene knockdown): sense strand: […], antisense strand: […].
(§3) In some embodiments, the western blot assay was performed using the following antibodies: anti-METTL 3 (antibody dilution ratio of 1:2000; #15073-1-AP; Proteintech) and anti-UQCC2 (antibody dilution ratio of 1:1000, Proteintech, #25781-1-AP). Anti-GAPDH (antibody dilution ratio 1:50,000, Proteintech, #60004-1-Ig) was used as a loading control. Significance was calculated using GraphPad Prism software, etc.

[2] = tested on: autophagosome markers LC3 and p62; assay: western blot of autophagosome markers after UQCC2 knockdown in H1975/OR cells; conditions: FIG. 11
Method: In a specific embodiment, the impact of UQCC2 knockdown in H1975/OR cells on the expression of the autophagosome markers LC3 and p62 was investigated by western blot assay. siUQCC2 (5′-3′): sense strand: […]; antisense strand: […].
In some embodiments, the western blot assay was performed using the following antibodies: anti-UQCC 2 (antibody dilution ratio of 1:1000, Proteintech, #25781-1-AP), anti-LC3 (antibody dilution ratio of 1:2000; #81004-1-RR; Proteintech), and anti-p 62 (antibody dilution ratio of 1:5000; #80294-1-RR; Proteintech). Anti-GAPDH (Antibody dilution ratio 1:50,000, Proteintech, #60004-1-Ig) was used as a loading control. Significance was calculated using GraphPad Prism software, etc.

autophagosome marker LC3 = assay: immunofluorescence assay of LC3 after UQCC2 knockdown in H1975/OR cells; conditions: FIG. 12
Method: In one embodiment, the expression of the autophagosome marker LC3 was analyzed by the immunofluorescence assay after the UQCC2 knockdown in H1975/OR cells. siUQCC2 (5′-3′): sense strand: […]; antisense strand: […].
In some embodiments, the H 1975/OR cells may be fixed with 4% formaldehyde, permeabilized with 0.2% Triton X-100, and blocked with 5% bovine serum albumin. The cells were then incubated with the indicated antibodies at 4° C. overnight and stained with fluorescently coupled secondary antibodies and DAPI solution. The H1975/OR cells were photographed under a fluorescence microscope (Leica DM6B Thunder). Anti-LC3 (antibody dilution ratio of 1:100; antibody used was Proteintech, No. 81004-1-RR).

UQCC2 [3] = assay: western blot of UQCC2 after siRNA knockdown of METTL3 in H1975/OR cells; conditions: FIG. 11B
Excerpt: as §1, §2, §3

O=C(NC1CCN(CCCCC2(C(=O)NCC(F)(F)F)c3ccccc3-c3ccccc32)CC1)c1ccccc1-c1ccc(C(F)(F)F)cc1 [lomitapide]
protein expression of UQCC2 (UQCC2 [1]): significantly reduced

siUQCC2: siRNA for UQCC2 gene knockdown; sense strand GACUCCAUUCAAACUACUATT, antisense strand UAGUAGUUUUGAAUGGAGUCTT (chemistry not fully specified)
expression of METTL3 (METTL3): does not affect
autophagy [2]: significantly activated
expression of autophagosome marker LC3 [2]: upregulation
expression of autophagosome marker p62 [2]: upregulation
autophagy (autophagosome marker LC3): significantly activated
expression of autophagosome marker LC3 (autophagosome marker LC3): up-regulation

siMETTL3: siRNA for METTL3 gene knockdown; sense strand GCACUUGGAUCUACGGAAU(dT)(dT) (antisense AUUCCGUAGAUCCAAGUGC; sense: 3' dTdT, sugars by position and backbone not given here; antisense: chemistry not given here)
expression of UQCC2 (UQCC2 [3]): downregulates
